The results in this text go back to patent publication US8124624B2, “Substituted sulfonamide compounds” (Gruenenthal GmbH, priority 2008, dated 2012).

For orientation: inhibition means the drop in the measured response relative to a control, in per cent.

The target in one assay is T1, human B1R (Homo sapiens, UniProt P46663).
T1 construct: expressed in transfected cells; host or cells: CHO K1 cells (hB1R cells)
T1 sequence (P46663 1-353): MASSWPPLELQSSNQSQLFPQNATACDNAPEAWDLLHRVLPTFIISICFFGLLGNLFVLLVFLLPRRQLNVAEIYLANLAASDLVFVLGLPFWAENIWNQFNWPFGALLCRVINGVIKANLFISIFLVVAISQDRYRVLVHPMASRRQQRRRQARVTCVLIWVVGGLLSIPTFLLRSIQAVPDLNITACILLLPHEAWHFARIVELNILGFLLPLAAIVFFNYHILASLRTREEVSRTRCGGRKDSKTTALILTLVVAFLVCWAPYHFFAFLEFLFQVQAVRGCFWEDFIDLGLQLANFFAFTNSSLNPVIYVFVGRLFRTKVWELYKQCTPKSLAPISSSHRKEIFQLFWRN
The assay can be described thus: FLIPR Ca2+ influx assay, B1R antagonism, human (hB1R CHO K1 cells). The conditions noted are these: test substance 10 μM, CHO K1 cells stably transfected with human B1R, agonist Lys-Des-Arg9-bradykinin at EC80, % inhibition compared with maximum achievable inhibition; for inhibition at 10 µM: read-out: B1R antagonism, human [10 μM] % inhibition. Format: cell-based. Put shortly: (§1)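 CHO K1 cells stably expressing human or rat B1R were loaded with Fluo-4, and Ca^2+ fluorescence was read on a FLIPR. After 10–20 min with test substance, agonist was added at EC80: Lys-Des-Arg^9-bradykinin for hB1R, Des-Arg^9-bradykinin for rB1R. % inhibition is relative to maximal inhibition; IC50 from multiple concentrations, n=2–3, N≥2.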

The target of another assay is T2, B1R of the rat (Rattus norvegicus, UniProt P97583).
T2 construct: expressed in transfected cells; host or cells: CHO K1 cells (rB1R cells)
T2 sequence (P97583 1-337): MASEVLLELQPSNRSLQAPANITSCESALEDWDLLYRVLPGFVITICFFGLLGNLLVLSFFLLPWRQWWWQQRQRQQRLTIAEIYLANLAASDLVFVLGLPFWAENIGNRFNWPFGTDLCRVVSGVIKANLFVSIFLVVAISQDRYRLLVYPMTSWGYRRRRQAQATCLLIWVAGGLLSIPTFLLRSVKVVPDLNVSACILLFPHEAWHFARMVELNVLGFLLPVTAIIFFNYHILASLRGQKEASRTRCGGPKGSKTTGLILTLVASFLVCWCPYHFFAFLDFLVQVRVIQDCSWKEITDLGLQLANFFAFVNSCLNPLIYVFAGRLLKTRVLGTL
The assay can be described thus: FLIPR Ca2+ influx assay, B1R antagonism, rat (rB1R CHO K1 cells). It is filed as cell-based. The conditions noted are these: test substance 10 μM, CHO K1 cells stably transfected with rat B1R, agonist Des-Arg9-bradykinin at EC80, % inhibition compared with maximum achievable inhibition; for inhibition at 10 µM: read-out: B1R antagonism, rat [10 μM] % inhibition. An outline of the steps:
as §1

Where a name gives a salt, the structure may show the parent alone.

`O=C(COCC1CCCCN1S(=O)(=O)c1ccccc1C(F)(F)F)N1CCC(CCCN2CCCC2)(c2cccnc2)CC1` (stereo not drawn) [Example 42, 1-[4-Pyridin-3-yl-4-(3-pyrrolidin-1-yl-propyl)-piperidin-1-yl]-2-[[1-[[2-(trifluoromethyl)-phenyl]sulfonyl]-piperidin-2-yl]-methoxy]-ethanone]: the “B1R antagonism, human [10 μM] % inhibition” value at human B1R worked out at 100%. On B1R of the rat, the “B1R antagonism, rat [10 μM] % inhibition” value is 102%.

Take `COc1cc(C)c(S(=O)(=O)N(CCOCC(=O)N2CCC(CCCN3CCCC3)(c3cccnc3)CC2)c2ccccc2)c(C)c1` [Example 48, 4-Methoxy-2,6-Dimethyl-N-[2-[2-oxo-2-[4-pyridin-3-yl-4-(3-pyrrolidin-1-yl-propyl)-piperidin-1-yl]-ethoxy]-ethyl]-N-phenyl-benzenesulfonic acid amide]: the inhibition at 10 µM is 100% on human B1R and 103% at B1R of the rat.

Regarding `COc1cc(C)c(S(=O)(=O)N2c3ccccc3CCC2COCC(=O)N2CCC(CCCN3CCCC3)(c3cccnc3)CC2)c(C)c1` (stereo not drawn) [Example 53, 2-[[1-[(4-Methoxy-2,6-dimethyl-phenyl)sulfonyl]-1,2,3,4-tetrahydro-quinolin-2-yl]-methoxy]-1-[4-pyridin-3-yl-4-(3-pyrrolidin-1-yl-propyl)-piperidin-1-yl]-ethanone], the inhibition at 10 µM on human B1R was found to be 100%; at B1R of the rat it was 102%.

Turning to `COc1cc(C)c(S(=O)(=O)N2CCCCC2CCCC(=O)N2CCC(CCCN3CCCC3)(c3cccnc3)CC2)c(C)c1` (stereo not drawn) [Example 60, 4-[1-[(4-Methoxy-2,6-dimethyl-phenyl)sulfonyl]-piperidin-2-yl]-1-[4-pyridin-3-yl-4-(3-pyrrolidin-1-yl-propyl)-piperidin-1-yl]-butan-1-one], the inhibition at 10 µM was determined as 100% at human B1R and 104% at B1R of the rat.

For the molecule `COc1cc(C)c(S(=O)(=O)N2CCCCC2CCCC(=O)N2CCC(CCCN3CCCC3)(c3cccnc3)CC2)c(C)c1` (stereo not drawn) [Example 61, 4-[1-[(4-Methoxy-2,6-dimethyl-phenyl)sulfonyl]-piperidin-2-yl]-1-[4-pyridin-3-yl-4-(3-pyrrolidin-1-yl-propyl)-piperidin-1-yl]-butan-1-one], the “B1R antagonism, human [10 μM] % inhibition” value at human B1R came out at 100%. Besides, on B1R of the rat, the “B1R antagonism, rat [10 μM] % inhibition” value was found to be 103%.

On to `COc1cc(C)c(S(=O)(=O)N2c3ccccc3OCC2COCC(=O)N2CCC(CCCN3CCCC3)(c3cccnc3)CC2)c(C)c1` (stereo not drawn) [Example 67, 2-[[4-[(4-Methoxy-2,6-dimethyl-phenyl)sulfonyl]-3,4-dihydro-2H-[1,4]benzoxazin-3-yl]-methoxy]-1-[4-pyridin-3-yl-4-(3-pyrrolidin-1-yl-propyl)-piperidin-1-yl]-ethanone], for which the inhibition at 10 µM at human B1R was 100%; at B1R of the rat, 102%.

Regarding `COc1cc(C)c(S(=O)(=O)N2c3ccccc3OCC2COCC(=O)N2CCC(CCCN3CCCC3)(c3cccnc3)CC2)c(C)c1` (stereo not drawn) [Example 68, 2-[[4-[(4-Methoxy-2,6-dimethyl-phenyl)sulfonyl]-3,4-dihydro-2H-[1,4]benzoxazin-3-yl]-methoxy]-1-[4-pyridin-3-yl-4-(3-pyrrolidin-1-yl-propyl)-piperidin-1-yl]-ethanone], the “B1R antagonism, human [10 μM] % inhibition” value on human B1R is 100%. The “B1R antagonism, rat [10 μM] % inhibition” value on B1R of the rat is recorded as 101%.

As for `COc1cc(C)c(S(=O)(=O)N(CCOCC(=O)N2CCC(CCCN3CCCC3)(c3cccnc3)CC2)Cc2cnc3ccccc3c2)c(C)c1` [Example 71, 4-Methoxy-2,6-Dimethyl-N-[2-[2-oxo-2-[4-pyridin-3-yl-4-(3-pyrrolidin-1-yl-propyl)-piperidin-1-yl]-ethoxy]-ethyl]-N-(quinolin-3-yl-methyl)-benzenesulfonic acid amide], the inhibition at 10 µM was 100% at human B1R and 103% on B1R of the rat.

Turning to `Cc1cccc(Cl)c1S(=O)(=O)N1c2ccccc2OCC1COCC(=O)N1CCC(CCCN2CCCC2)(c2cccnc2)CC1` (stereo not drawn) [Example 72, 2-[[4-[(2-Chloro-6-methyl-phenyl)sulfonyl]-3,4-dihydro-2H-[1,4]benzoxazin-3-yl]-methoxy]-1-[4-pyridin-3-yl-4-(3-pyrrolidin-1-yl-propyl)-piperidin-1-yl]-ethanone], the results for the inhibition at 10 µM at human B1R and on B1R of the rat were 100% and 103%, respectively.

With `O=C(COCC1COc2ccccc2N1S(=O)(=O)c1ccccc1C(F)(F)F)N1CCC(CCCN2CCCC2)(c2cccnc2)CC1` (stereo not drawn) [Example 74, 1-[4-Pyridin-3-yl-4-(3-pyrrolidin-1-yl-propyl)-piperidin-1-yl]-2-[[4-[[2-(trifluoromethyl)-phenyl]sulfonyl]-3,4-dihydro-2H-[1,4]benzoxazin-3-yl]-methoxy]-ethanone], the inhibition at 10 µM at human B1R was 100%. Also, on B1R of the rat, the “B1R antagonism, rat [10 μM] % inhibition” value worked out at 93%.

With `Cc1cccc(Cl)c1S(=O)(=O)N(CCOCC(=O)N1CCC(CCCN2CCCC2)(c2cccc(Cl)c2)CC1)C1CC1` [Example 77, 2-Chloro-N-[2-[2-[4-(3-chlorophenyl)-4-(3-pyrrolidin-1-yl-propyl)-piperidin-1-yl]-2-oxo-ethoxy]-ethyl]-N-cyclopropyl-6-methyl-benzenesulfonic acid amide], the inhibition at 10 µM on human B1R is 100%; on B1R of the rat, 92%.

As to `Cc1cccc(Cl)c1S(=O)(=O)N(CCOCC(=O)N1CCC(CCCN2CCCC2)(c2cccc(C(F)(F)F)c2)CC1)C1CC1` [Example 78, 2-Chloro-N-cyclopropyl-6-methyl-N-[2-[2-oxo-2-[4-(3-pyrrolidin-1-yl-propyl)-4-[3-(trifluoromethyl)phenyl]-piperidin-1-yl]-ethoxy]-ethyl]-benzenesulfonic acid amide], the inhibition at 10 µM at human B1R turned out to be 97%; on B1R of the rat, 92%.

Take `Cc1cccc(Cl)c1S(=O)(=O)N(CCOCC(=O)N1CCC(CCCN2CCCC2)(c2cccc(F)c2)CC1)C1CC1` [Example 79, 2-Chloro-N-cyclopropyl-N-[2-[2-[4-(3-fluorophenyl)-4-(3-pyrrolidin-1-yl-propyl)-piperidin-1-yl]-2-oxo-ethoxy]-ethyl]-6-methyl-benzenesulfonic acid amide]: the inhibition at 10 µM came to 100% on human B1R and 103% at B1R of the rat.

`COc1cc(C)c(S(=O)(=O)N2CCCC[C@H]2COCC(=O)N2CCC(CCN3CCCC3)(c3cccnc3)CC2)c(C)c1` [Example 80, 2-[[(2S)-1-[(4-Methoxy-2,6-dimethyl-phenyl)sulfonyl]-piperidin-2-yl]-methoxy]-1-[4-pyridin-3-yl-4-(2-pyrrolidin-1-yl-ethyl)-piperidin-1-yl]-ethanone hydrochloride]: the values for the inhibition at 10 µM at human B1R and on B1R of the rat were 100% and 104%, respectively.

On to `COc1cc(C)c(S(=O)(=O)N2CCCC[C@H]2COCC(=O)N2CCC(CCCN3CCCC3)(c3cccnc3)CC2)c(C)c1` [Example 81, 2-[[(2S)-1-[(4-Methoxy-2,6-dimethyl-phenyl)sulfonyl]-piperidin-2-yl]-methoxy]-1-[4-pyridin-3-yl-4-(3-pyrrolidin-1-yl-propyl)-piperidin-1-yl]-ethanone hydrochloride], for which the inhibition at 10 µM at human B1R is 100%; on B1R of the rat it was 102%.
